What is called EC50 is the concentration that produces a half-maximal response.

In this test the target is T1, human thyroid receptor beta ligand-binding domain (THR-beta) (Homo sapiens, UniProt P10828).
T1 sequence (P10828 217-461 limits assumed): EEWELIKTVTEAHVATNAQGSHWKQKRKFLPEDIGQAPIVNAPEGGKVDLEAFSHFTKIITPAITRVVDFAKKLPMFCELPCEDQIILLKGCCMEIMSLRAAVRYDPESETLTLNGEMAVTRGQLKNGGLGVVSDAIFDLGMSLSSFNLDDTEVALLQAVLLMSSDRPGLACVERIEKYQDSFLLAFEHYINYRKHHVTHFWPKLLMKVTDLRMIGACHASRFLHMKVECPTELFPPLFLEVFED
Nature of the test: THR Biochemical Assay (Assay 1): TR-FRET thyroid receptor beta coactivator assay. The settings on record: TR-FRET SRC2-2 coactivator recruitment, GST-tagged THR-beta LBD 1 nM, 1 hr at rt; read-out: Assay 1 (EC50, THR-beta agonist activity). The source says: THR Biochemical Assay (Assay 1)
The TR-FRET thyroid receptor beta coactivator assay is to be used. The assay uses a terbium-labeled anti-GST antibody, a glutathione-S-transferase (GST) tagged human thyroid receptor, beta or alpha, ligand-binding domain (LBD), and a fluorescein labeled SRC2-2 coactivator peptide. The antibody interacts with the LBD, where the agonist will also bind, resulting in increased affinity for the SRC2-2 coactivator peptide causing energy transfer of the acceptor fluorophore and a FRET emission shift from 495 to 520 nm. The energy transfer is detected as an increase in the fluorescence emission of the fluorescein acceptor, and a decrease in the fluorescence emission of the terbium donor. The assay is to be performed in a 384-well black plate in a final volume of 20 μL. Serial dilution of various test agonists will be performed in DMSO (1% final DMSO concentration) and added to the test plate. Thyroid receptor beta LBD will usually be added to the plate at a final concentration of 1 nM, followed by the mixture of the fluorescein labeled SRC2-2 coactivator peptide, and the terbium-labeled anti-GST antibody at final concentrations of 200 nM and 2 nM respectively. The assay will often be incubated for 1 hr at rt protected from light. The TR-FRET will then be measured on a Victor multilabel reader (Perkin Elmer) using an excitation wavelength of 340 nm with emission filters of 495 nm and 520 nm. The assay will be quantified by expressing a ratio (520:495) of the intensities, and the resulting activation curves; EC50 values are to be generated using a sigmoidal dose response (variable slope) equation in GraphPad™ Prism 8.0.
For the compound `CC1CCc2c(Oc3c(Cl)cc(-n4nc(N)c(=O)[nH]c4=O)cc3Cl)c[nH]c(=O)c21` (stereo not drawn) [Example 15, 6-amino-2-[3,5-dichloro-4-[(7-methyl-1-oxo-2,5,6,7-tetrahydrocyclopenta[c]pyridin-4-yl)oxy]phenyl]-1,2,4-triazine-3,5-dione], the EC50 is 250 to 1000 nM.

As for `Cc1cc(-n2nc(N)c(=O)[nH]c2=O)cc(C)c1Oc1c[nH]c(=O)c(C(C)C)c1` [Compound 9, 6-amino-2-(4-((5-isopropyl-6-oxo-1,6-dihydropyridin-3-yl)oxy)-3,5-dimethylphenyl)-1,2,4-triazine-3,5(2H,4H)-dione], the EC50 was 50 to 250 nM.

For `CC(C)n1cc(Oc2c(Cl)cc(-n3nc(N)c(=O)[nH]c3=O)cc2Cl)ccc1=O` [Compound 8, 6-amino-2-(3,5-dichloro-4-((1-isopropyl-6-oxo-1,6-dihydropyridin-3-yl)oxy)phenyl)-1,2,4-triazine-3,5(2H,4H)-dione], the EC50 lay within 50 to 250 nM.

The values are drawn from US11786532B2, “2-pyridones and methods of use thereof” (ALIGOS THERAPEUTICS, INC., priority 2020, dated 2023).
